Laboratory results published in patent US10238658B2, “1-pyrazolyl-3-(4-((2-anilinopyrimidin-4-yl) oxy) napththalen-1-yl) ureas as p38 MAP kinase inhibitors” (Respivert Limited, priority 2011, dated 2019).

Experiments:
TNFα [1] = assay: LPS-induced TNFα release in THP-1 cells; type: cell-based; conditions: Homo sapiens, THP-1, THP1 cells
Method: THP-1 cells, a human monocytic cell line, were stimulated with 3 μg/mL of LPS (from E. Coli; 0111:B4, Sigma) for 4 hr and the supernatant collected for determination of the TNFα concentration by sandwich ELISA (Duo-set, R&D systems). The inhibition of TNFα production was calculated at each concentration by comparison with vehicle control.

IL-8 [2] = assay: LPS-induced IL-8 release in d-U937 cells; type: cell-based; conditions: Homo sapiens, dU937, dU937 cells
Method: (§1) U937 cells, a human monocytic cell line, were differentiated into macrophage-type cells by incubation with PMA (100 ng/mL) for 48 to 72 hr. Cells were pre-incubated with final concentrations of test compound for 2 hr and were then stimulated with LPS (0.1 μg/mL; from E. Coli: O111:B4, Sigma) for 4 hr. The supernatant was collected for determination of TNFα and IL-8 concentrations by sandwich ELISA (Duo-set, R&D systems). […] The relative 50% effective concentration (REC50) was determined from the resultant concentration-response curve. The inhibition of IL-8 production was calculated at each concentration of test compound by comparison with vehicle control.

RSV A2 = assay: In vitro RSV virus load (F-protein ELISA) in primary bronchial epithelial cells; type: cell-based, respiratory syncytical virus; conditions: human respiratory syncytial virus, Primary bronchial epithelial cell; at 0.04 μg/mL; read-out: RSV (F-Elisa) (HBEC) % inhibition
Method: Normal human bronchial epithelial cells (NHBEC) grown in 96 well plates were infected with RSV A2 (Strain A2, HFA, Salisbury, UK) at an MOI of 0.001 in the LHC8 Media:RPMI-1640 (50:50) containing 15 mM magnesium chloride and incubated for 1 hr at 37° C. for adsorption. The cells were then washed with PBS (3×200 μL), fresh media (200 μL) was added and incubation continued for 4 days. Where appropriate, cells were pre-incubated with the compound or DMSO for 2 hr, and then added again after washout of the virus.
The cells were fixed with 4% formaldehyde in PBS solution (50 μL) for 20 min, washed with washing buffer (3×200 μL; PBS including 0.5% BSA and 0.05% Tween-20) and incubated with blocking solution (5% condensed milk in PBS) for 1 hr. Cells were then washed with washing buffer (3×200 μL) and incubated for 1 hr at RT with anti-RSV (2F7) F-fusion protein antibody (40 μL; mouse monoclonal, lot 798760, Cat. No. ab43812, Abcam) in 5% BSA in PBS-tween). After washing, cells were incubated with an HRP-conjugated secondary antibody solution (50 μL) in 5% BSA in PBS-Tween (lot 00053170, Cat.No. P0447, Dako) and then TMB substrate (50 μL; substrate reagent pack, lot 269472, Cat. No. DY999, R&D Systems, Inc.) was added. This reaction was stopped by the addition of 2N H2SO4 (50 μL) and the resultant signal was determined colorimetrically (OD: 450 nm with a reference wavelength of 655 nm) in a microplate reader (Varioskan® Flash, ThermoFisher Scientific).
After washing with washing buffer, 1% SDS in distilled water (100 μL) was added to each well, and plates were shaken lightly on the shaker for 1 hr prior to reading the absorbance at 595 nm. The measured OD450-655 readings were corrected to the cell number by dividing the OD450-655 by the OD595 readings. The percentage inhibition for each well was calculated and the IC50 value was calculated from the concentration-response curve generated from the serial dilutions of compound.

HRV16 = HRV16 induced CPE in MRC5 cells; type: cell-based; conditions: Human rhinovirus sp., HRV16, MRC5, at 0.04 μg/mL; read-out: HRV CPE (MRC5) % inhibition
Method: The supernatants were aspirated, and then fresh media added followed by incubation for 4 days. Where appropriate, cells were pre-incubated with compound or DMSO for 2 hr, and the compounds and DMSO added again after washout of the virus.
The percentage inhibition for each well was calculated. The IC50 value was calculated from the concentration-response curve generated by the serial dilutions of the test compounds.

TNFα [3] = assay: LPS-induced TNFα release in d-U937 cells; type: cell-based; conditions: Homo sapiens, dU937, dU937 cells; relative to 10 μg/mL BIRB796; read-out: LPS Induced Release TNFα REC50 (dU937)
Method: as §1

IL-8 [4] = assay: Rhinovirus-induced IL-8 release in BEAS2B cells; type: cell-based; conditions: Homo sapiens, BEAS-2B, at 0.04 μg/mL; read-out: HRV IL-8 (BEAS2B) % inhibition
Method: Human rhinovirus RV16 was obtained from the American Type Culture Collection (Manassas, Va.). Viral stocks were generated by infecting Hela cells with HRV until 80% of the cells were cytopathic.
BEAS2B cells were infected with HRV at an MOI of 5 and incubated for 2 hr at 33° C. with gentle shaking for to promote absorption. The cells were then washed with PBS, fresh media added and the cells were incubated for a further 72 hr. The supernatant was collected for assay of IL-8 concentrations using a Duoset ELISA development kit (R&D systems, Minneapolis, Minn.). […]

IL-8 [5] = assay: LPS-stimulated IL-8 production in sputum macrophages from COPD; type: cell-based; conditions: Homo sapiens, Macrophage; read-out: IL-8 E max, sputum macrophage
Method: (§2) Patients with COPD were inhaled with a nebulised solution of 3% (w/v) hypertonic saline using an ultrasonic nebuliser (Devilbiss, Carthage, Mo.) with tidal breathing for 5 min. This procedure was repeated a maximum of three times until enough sputum was obtained. The sputum samples were homogenized and mixed vigorously using a vortex mixer in 0.02% v/v dithiothreitol (DTT) solution. The samples were re-suspended in PBS (40 mL) followed by centrifugation at 1500 rpm at 4° C. for 10 min to obtain sputum cell pellets. The pellets were washed twice with PBS (40 mL). The sputum cells were then re-suspended in macrophage serum-free medium (macrophage-SFM, Life technologies, Paisley, UK; to achieve 2×10^6/well in a 24 well plate) containing 20 U/mL penicillin, 0.02 mg/mL streptomycin and 5 μg/mL amphotericin B and seeded on high bound 96-well plate, followed by incubation for 2 hr at 37° C. and at 5% CO2 to allow the macrophages to attach to the bottom of the plate. The cells on the plate were washed with fresh macrophage-SFM (200 μL/well) to remove neutrophils and other contaminated cells. The adherent cells (mainly sputum macrophages) on the plate were used for further analysis. Sputum induction and isolation were conducted in Quintiles Drug Research Unit at Guys Hospital and ethics approval and written informed consent was obtained by Quintiles.
(§3) Where appropriate, 1 μL of a solution containing either the test compound or reference article at the stated concentrations or alternatively 1 μL of DMSO as the vehicle control was added to each well (200 μL in media) and the cells were incubated for 2 hr. […] After washing with 200 uL wash buffer per well, the beads were resuspended in sheath fluid (150 μL) and analyzed immediately. The level of each analyte in the supernatant was calculated using Xcel Fit software with a 4 or 5-parameter equation using each standard curve. The inhibitions of each cytokine production were calculated at each concentration by comparison with vehicle control. The IC50 values were determined from concentration-inhibition curves using XL-Fit (idbs, Guildford, UK)

A/J mice = assay: Cigarette smoke model: macrophage and neutrophil accumulation in BALF; type: in vivo, mouse; conditions: 1.75 μg/mouse (35 μL, bid, i.n.)
Method: A/J mice (males, 5 weeks old) were exposed to cigarette smoke (4% cigarette smoke, diluted with air) for 30 min/day for 11 days using a Tobacco Smoke Inhalation Experiment System for small animals (Model SIS-CS; Sibata Scientific Technology, Tokyo, Japan). […] At 12 hr after the last dosing, each of the animals was anesthetized, the trachea cannulated and bronchoalveolar lavage fluid (BALF) was collected. The numbers of alveolar macrophages and neutrophils were determined by FACS analysis (EPICS® ALTRA II, Beckman Coulter, Inc., Fullerton, Calif., USA) using anti-mouse MOMA2 antibody (macrophage) or anti-mouse 7/4 antibody (neutrophil). BALF was centrifuged and the supernatant was collected. The level of keratinocyte chemoattractant (KC; CXCL1) in BALF was quantitated using a Quentikine® mouse KC ELISA kit (R&D systems, Inc., Minneapolis, Minn., USA).

IL-6 [6] = assay: LPS-stimulated IL-6 production in sputum macrophages from COPD; type: cell-based; conditions: Homo sapiens, Macrophage; read-out: IL-6 E max, sputum macrophage
Method: Patients with COPD were inhaled with a nebulised solution of 3% (w/v) hypertonic saline using an ultrasonic nebuliser (Devilbiss, Carthage, Mo.) with tidal breathing for 5 min. This procedure was repeated a maximum of three times until enough sputum was obtained. The sputum samples were homogenized and mixed vigorously using a vortex mixer in 0.02% v/v dithiothreitol (DTT) solution. The samples were re-suspended in PBS (40 mL) followed by centrifugation at 1500 rpm at 4° C. for 10 min to obtain sputum cell pellets. The pellets were washed twice with PBS (40 mL). […]
as §3

IL-8 [7] = assay: TNFα-stimulated IL-8 production in primary bronchial epithelial cells from COPD; type: cell-based; conditions: Homo sapiens, Epithelial cell; read-out: IL-8 E max, bronchial epithelial cell
Method: (§4) Primary airway epithelial cells obtained from patients with COPD were purchased from Asterand (Royston, UK), and maintained in bronchial epithelial cell growth media that was prepared by mixing together LHC8 (lnvitrogen) (500 mL), with LHC9 (Invitrogen) (500 mL) and 3 μL of retinoic acid solution (5 mg/mL in neat DMSO. The media was removed by aspiration and fresh BEGM (200 μL) was added to each well. Where appropriate, 1 μL of a solution of the test compound at the state concentrations or 1 μL of DMSO as the vehicle control was added and the cells were incubated for 2 hr. The cells were stimulated with TNFα (50 μL; final concentration 50 ng/mL) and then incubated for 4 hr at 37° C. and 5% CO2. The supernatant was then collected and kept at −20° C.
(§5) The levels of IL-6 and IL-8 were determined by ELISA using R&D Systems' Human IL-6 and IL-8 Duoset® Elisa Kits. The inhibition of IL-6 and IL-8 production was calculated at each concentration by comparison with vehicle control.

IL-6 [8] = assay: TNFα-stimulated IL-6 production in primary bronchial epithelial cells from COPD; type: cell-based; conditions: Homo sapiens, Epithelial cell; read-out: IL-6 E max, bronchial epithelial cell
Method: as §4, §5

MIP1α = assay: LPS-stimulated MIP1α production in sputum macrophages from COPD; type: cell-based; conditions: Homo sapiens, Macrophage; read-out: MIP1α E max, sputum macrophage
Method: as §2, §3

TNFα [9] = assay: LPS-stimulated TNFα production in sputum macrophages from COPD; type: cell-based; conditions: Homo sapiens, Macrophage; read-out: TNFα E max, sputum macrophage
Method: as §2, §3

PBMC = assay: Cell mitosis assay; type: cell-based; conditions: Homo sapiens, read-out: Mitosis Assay % inhibition in PBMC Cells at concn 5 μg/mL
Method: Peripheral blood mononucleocytes (PBMCs) from healthy subjects were separated from whole blood (Quintiles, London, UK) using a density gradient (Histopaque®-1077, Sigma-Aldrich, Poole, UK). The PBMCs (3 million cells per sample) were subsequently treated with 2% PHA (Sigma-Aldrich, Poole, UK) for 48 hr, followed by a 20 hr exposure to varying concentrations of test compounds. At 2 hr before collection, PBMCs were treated with demecolcine (0.1 μg/mL; Invitrogen, Paisley, UK,) to arrest cells in metaphase. To observe mitotic cells, PBMCs were permeabilised and fixed by adding Intraprep (50 μL; Beckman Coulter, France), and stained with anti-phospho-histone 3 ([…]; #9701; Cell Signalling, Danvers, Mass.) and propidium iodide (1 mg/mL; Sigma-Aldrich, Poole, UK,) as previously described (Muehlbauer P. A. and Schuler M. J., Mutation Research, 2003, 537:117-130). Fluorescence was observed using an ATTUNE flow cytometer (Invitrogen, Paisley, UK), gating for lymphocytes.

SMILES	IC50 (TNFα [1])	IC50 (IL-8 [2])	inhibition at 0.04 µg/mL (RSV A2)	inhibition at 0.04 µg/mL (HRV16)	EC50 (TNFα [3])	inhibition at 0.04 µg/mL (IL-8 [4])	Emax at 0.1 µg/mL (IL-8 [5])	macrophage accumulation into airways, cigarette smoke model (A/J mice)	neutrophil accumulation into airways, cigarette smoke model (A/J mice)	Emax at 0.1 µg/mL (IL-6 [6])	Emax at 0.1 µg/mL (IL-8 [7])	Emax at 0.1 µg/mL (IL-6 [8])	Emax at 0.1 µg/mL (MIP1α)	Emax at 0.1 µg/mL (TNFα [9])	inhibition at 5 µg/mL (PBMC)
Cc1ccc(-n2nc(C(C)(C)C)cc2NC(=O)Nc2ccc(Oc3ccnc(Nc4ccccc4C)n3)c3ccccc23)cc1 [Example 21, 1-(3-(tert-butyl)-1-(p-tolyl)-1H-pyrazol-5-yl)-3-(4-((2-(o-tolylamino)pyrimidin-4-yl)oxy)naphthalen-1-yl)urea]	17 nM	> 1680 nM	66%	3%	9.7 nM	100%	–	–	–	–	–	–	–	–	–
Cc1ccc(-n2nc(C(C)(C)C)cc2NC(=O)Nc2ccc(Oc3ccnc(Nc4ccc(F)cc4)n3)c3ccccc23)cc1 [Example 23, 1-(3-(tert-butyl)-1-(p-tolyl)-1H-pyrazol-5-yl)-3-(4-((2-((4-fluorophenyl)amino)pyrimidin-4-yl)oxy)naphthalen-1-yl)urea]	24 nM	22 nM	41%	18%	8 nM	100%	–	–	–	–	–	–	–	–	–
CCC(=O)O[C@]1(C(=O)SCF)[C@H](C)C[C@H]2[C@@H]3C[C@H](F)C4=CC(=O)C=C[C@]4(C)[C@@]3(F)[C@@H](O)C[C@@]21C [Fluticasone Propionate, fluticasone propionate, reference compound]	–	–	–	–	–	–	19%	did not inhibit	did not inhibit	26%	17%	38%	20%	18%	–
CCOc1ccc(Nc2nccc(Oc3ccc(NC(=O)Nc4cc(C(C)(C)C)nn4-c4ccc(C)cc4)c4ccccc34)n2)cc1 [Example 22, 1-(3-(tert-butyl)-1-(p-tolyl)-1H-pyrazol-5-yl)-3-(4-((2-((4-ethoxyphenyl)amino)pyrimidin-4-yl)oxy)naphthalen-1-yl)urea]	30 nM	> 1590 nM	78%	48%	17 nM	100%	–	–	–	–	–	–	–	–	70.8%
